Test results published in patent publication US8859543B2, “Imidazo[1,2-a]pyrazine derivatives and their use for the prevention or treatment of neurological, psychiatric and metabolic disorders and diseases” (Janssen Pharmaceutica NV, priority 2010, dated 2014).
Where two headings read alike, the source gives them in different places.

How the values were obtained:
[1] = test system: apomorphine-induced stereotypy; assay: Apomorphine-induced stereotypy in rats (APO); assay type: in vivo; details: Rattus norvegicus
Experimental: Apomorphine-Induced Stereotypy in Rats (APO)
Apomorphine (1.0 mg/kg, i.v.)-induced stereotypy (compulsive sniffing, licking, chewing) was scored every 5 min. over the first hour after injection of apomorphine, following a 1 hour interval pre-treatment with the test compound. The score system was: (3) pronounced, (2) moderate, (1) slight, and (O) absent.

PDE10 = target: T1, PDE10 (Rattus norvegicus, UniProt Q9QYJ6); assay: PDE10 occupancy ([3H]-MP-10, striatum); assay type: in vivo; details: for ED50 / receptor occupancy at 10 mg/kg: rat; for ED50: occupancy, read-out: Occ. ED50; for receptor occupancy at 10 mg/kg: 1 h, read-out: % occ. printed under Occ. ED50 >10
T1 construct: from tissue; host or cells: rat brain sections, striatum (ex vivo autoradiography after in vivo dosing)
T1 sequence (Q9QYJ6 1-794): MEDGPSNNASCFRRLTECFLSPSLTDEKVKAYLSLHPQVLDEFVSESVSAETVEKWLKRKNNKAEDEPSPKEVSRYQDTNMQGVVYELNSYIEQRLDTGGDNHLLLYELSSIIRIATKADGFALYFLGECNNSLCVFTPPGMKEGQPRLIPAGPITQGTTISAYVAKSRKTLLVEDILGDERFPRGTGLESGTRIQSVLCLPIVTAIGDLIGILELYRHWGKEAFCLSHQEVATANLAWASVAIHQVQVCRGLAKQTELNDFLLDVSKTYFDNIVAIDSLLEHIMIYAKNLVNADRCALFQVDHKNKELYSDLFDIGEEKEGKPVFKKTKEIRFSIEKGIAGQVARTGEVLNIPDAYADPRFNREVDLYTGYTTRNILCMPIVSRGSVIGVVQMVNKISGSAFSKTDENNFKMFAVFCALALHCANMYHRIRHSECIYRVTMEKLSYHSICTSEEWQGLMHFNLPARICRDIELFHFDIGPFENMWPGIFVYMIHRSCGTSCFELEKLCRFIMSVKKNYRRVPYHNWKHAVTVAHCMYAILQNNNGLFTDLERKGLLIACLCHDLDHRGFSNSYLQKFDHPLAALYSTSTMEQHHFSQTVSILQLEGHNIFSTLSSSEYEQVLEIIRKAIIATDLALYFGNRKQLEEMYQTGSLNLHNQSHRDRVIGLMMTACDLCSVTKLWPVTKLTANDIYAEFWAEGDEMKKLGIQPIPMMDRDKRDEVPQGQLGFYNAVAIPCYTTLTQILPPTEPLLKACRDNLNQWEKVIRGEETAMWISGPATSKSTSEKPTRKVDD
Experimental: Dose-response or single dose experiments were performed to measure PDE10 occupancy 1 hour after subcutaneous (s.c.) or oral (p.o.) administration. Male Wistar rats (200 g) were treated by s.c. or p.o. administration of various PDE10 inhibitors. The PDE10 radioligand [^3H]-MP-10 (10 μCi/animal) was injected intravenously (i.v.) 30 minutes before sacrifice. Brains were immediately removed from the skull and rapidly frozen. Twenty μm-thick brain sections were cut using a cryostat-microtome, thaw-mounted on microscope slides and loaded in a β-imager to quantify PDE10 occupancy in the striatum.

[2] = target: T2, Rat recombinant PDE10A (rPDE10A2) (Rattus norvegicus, UniProt Q9QYJ6); assay: In vitro assay PDE10A (SPA, 3H-cAMP); assay type: biochemical; details: pIC50 corresponds to the -log IC50 expressed in mol/L; for IC50: read-out: PDE10A2 pIC50 (converted)
T2 construct: made in house; host or cells: Sf9 insect cells, baculovirus
T2 sequence (Q9QYJ6 1-794): T1 sequence (Q9QYJ6 1-794)
Experimental: Rat recombinant PDE10A (rPDE10A2) was expressed in Sf9 cells using a recombinant rPDE10A baculovirus construct. Cells were harvested after 48 h of infection and the rPDE10A protein was purified by metal chelate chromatography on Ni-sepharose 6FF. Tested compounds were dissolved and diluted in 100% DMSO to a concentration 100 fold of the final concentration in the assay. Compound dilutions (0.4 μl) were added in 384 well plates to 20 μl of incubation buffer (50 mM Tris pH 7.8, 8.3 mM MgCl2, 1.7 mM EGTA). 10 μl of rPDE10A enzyme in incubation buffer was added and the reaction was started by addition of 10 μl substrate to a final concentration of 60 nM cAMP and 0.008 μCi ^3H-cAMP. The reaction was incubated for 60 min. at RT. […] After sedimentation of the beads during 30 min. the radioactivity was measured in a Perkin Elmer Topcount scintillation counter and results were expressed as cpm. For blank values the enzyme was omitted from the reaction and replaced by incubation buffer. Control values were obtained by addition of a final concentration of 1% DMSO instead of compound. The same assay principle is applied for the measurement of the affinity of the compound for other members of the PDE family with appropriate modifications in incubation buffer, substrate concentration, incubation time and stop solution.

[3] = test system: PCP-induced hyperlocomotion; assay: PCP-induced hyperlocomotion in rats (PCP); assay type: in vivo; details: Rattus norvegicus
[4] = po, * compound was not soluble and was tested orally as a suspension, read-out: APO ED50
[5] = not active at 2.5 or at 10 mg/kg, not further tested, read-out: APO ED50 (not active at threshold dose)

Row | Compound | % Occ. at 10 mg/kg (PDE10; administered s.c.) | IC50 [2] | ED50 ([1]; read-out: APO ED50) | ED50 [1, 5] | other results
1 | COCCn1cc(-c2c(C)nc3c(-c4ccncc4)nccn23)cn1 [compound 34, 3-[1-(2-Methoxy-ethyl)-1H-pyrazol-4-yl]-2-methyl-8-pyridin-4-yl-imidazo[1,2-a]pyrazine] | 52% | 263 nM | – | – | ED50 [1, 4]: 1.2 mg/kg
2 | COCCc1ccc(-c2c(OC)nc3c(N4CCOCC4)nccn23)cn1 [compound 15, 2-Methoxy-3-[6-(2-methoxy-ethyl)-pyridin-3-yl]-8-morpholin-4-yl-imidazo[1,2-a]pyrazine] | – | – | 1.2 mg/kg | – | ED50 (PDE10; sc, administered s.c.): 1.5 mg/kg
3 | Cc1nc2c(N3CCOCC3)nccn2c1-c1cnn(CC2CCCCO2)c1 (single isomer, unassigned) [compound 70] | – | 91.2 nM | 5 mg/kg | – | ED50 [3]: 3.2 mg/kg
4 | COCCn1cc(-c2c(C)nc3c(N4CCCC4)nccn23)cn1 [compound 130] | 10% | – | – | > 2.5 mg/kg | PDE10A2 pIC50 [2]: 6.3
5 | COCCn1cc(-c2c(C3CC3)nc3c(-c4ccncc4)nccn23)cn1 [compound 51] | 61% | 50.1 nM | 1.2 mg/kg | – | –
6 | Cc1nc2c(N3CCOCC3)nccn2c1-c1cnc(CC(C)C)s1 [compound 42, 3-(2-Isobutyl-thiazol-5-yl)-2-methyl-8-morpholin-4-yl-imidazo[1,2-a]pyrazine] | 59% | – | 5 mg/kg | – | –
7 | COC(C)(C)Cn1cc(-c2c(C3CC3)nc3c(N4CCOCC4)nccn23)cn1 [compound 48] | 53% | 33.1 nM | 3.1 mg/kg | – | –
8 | COCCc1ccc(-c2c(C)nc3c(-c4ccncc4)nccn23)cn1 [compound 8, 3-[6-(2-Methoxy-ethyl)-pyridin-3-yl]-2-methyl-8-pyridin-4-yl-imidazo[1,2-a]pyrazine] | – | – | 1.2 mg/kg | – | ED50 (PDE10; sc, administered s.c.): 2.6 mg/kg
9 | COC(C)(C)c1ccc(-c2c(C)nc3c(N4CCOCC4)nccn23)cn1 [compound 30, 3-[6-(1-Methoxy-1-methyl-ethyl)-pyridin-3-yl]-2-methyl-8-morpholin-4-yl-imidazo[1,2-a]pyrazine] | – | 107 nM | 1.2 mg/kg | – | ED50 (PDE10; sc, administered s.c.): 3.4 mg/kg
10 | COC(C)(C)Cn1cc(-c2c(C3CC3)nc3c(-c4ccncc4)nccn23)cn1 [compound 50] | 72% | 47.9 nM | 5 mg/kg | – | –
11 | Cc1nc2c(N3CCOCC3)nccn2c1-c1ccc(N2CCOCC2)nc1 [compound 4, 2-Methyl-8-morpholin-4-yl-3-(6-morpholin-4-yl-pyridin-3-yl)-imidazo[1,2-a]pyrazine] | 28% | 141 nM | 3.1 mg/kg | – | –
12 | COCCc1ccc(-c2c(C(F)(F)F)nc3c(N4CCOCC4)nccn23)cn1 [compound 12, 3-[6-(2-Methoxy-ethyl)-pyridin-3-yl]-8-morpholin-4-yl-2-trifluoromethyl-imidazo[1,2-a]pyrazine] | – | – | ≤ 2.5 mg/kg | – | receptor occupancy at 10 mg/kg (PDE10; sc): 22%; ED50 (PDE10; sc, administered s.c.): > 10 mg/kg
13 | Cc1nc2c(N3CCOCC3)nccn2c1-c1ccc(C2CC2)nc1 [compound 28, 3-(6-Cyclopropyl-pyridin-3-yl)-2-methyl-8-morpholin-4-yl-imidazo[1,2-a]pyrazine] | – | – | – | – | ED50 [1, 4]: 1.2 mg/kg; receptor occupancy at 10 mg/kg (PDE10; sc): 31%; ED50 (PDE10; sc, administered s.c.): > 10 mg/kg
14 | COCCn1cc(-c2c(C)nc3c(-c4cccnc4)nccn23)cn1 [compound 135] | – | – | – | – | receptor occupancy at 10 mg/kg (PDE10; po): 29%; ED50 (PDE10; po, administered p.o. (a)): > 10 mg/kg; PDE10A2 pIC50 [2]: 6.25
15 | Cc1nc2c(N3CCOCC3)nccn2c1-c1ccnc(OC(C)C)c1 [compound 113] | 11% | 251 nM | – | > 2.5 mg/kg | –
16 | Cc1nc2c(N3CCOCC3)nccn2c1-c1cnn(C(C)C)c1 [compound 81] | – | – | – | > 2.5 mg/kg | PDE10A2 pIC50 [2]: 6.95
17 | CO[C@@H](C)Cn1cc(-c2c(C)nc3c(-c4ccncc4)nccn23)cn1 [compound 101] | – | 162 nM | 3.1 mg/kg | – | –

Row | Compound | % Occ. at 10 mg/kg (PDE10; administered s.c.) | IC50 [2] | ED50 ([1]; read-out: APO ED50) | ED50 [1, 5] | other results
18 | c1cn2c(-c3ccc(N4CCNCC4)nc3)c(C3CC3)nc2c(N2CCOCC2)n1 [compound 87] | – | 126 nM | – | > 2.5 mg/kg | –
19 | Cc1nc2c(N3CCOCC3)nccn2c1-c1cnn(Cc2ccccn2)c1 [compound 76] | – | 102 nM | 3.1 mg/kg | – | –
20 | Cc1nc2c(N3CCOCC3)nccn2c1-c1cnn(CC(F)(F)F)c1 [compound 49] | – | – | 5 mg/kg | – | PDE10A2 pIC50 [2]: 7.33
21 | Cc1nc2c(N3CCOCC3)nccn2c1-c1ccnc(NC(C)C)c1 [compound 22, Isopropyl-[4-(2-methyl-8-morpholin-4-yl-imidazo[1,2-a]pyrazin-3-yl)-pyridin-2-yl]-amine] | – | 97.7 nM | – | > 2.5 mg/kg | –
22 | FC(F)(F)Cn1cc(-c2c(C3CC3)nc3c(-c4ccncc4)nccn23)cn1 [compound 45] | – | 20 nM | – | – | ED50 [1, 4]: 3.1 mg/kg; % Occ. at 10 mg/kg (PDE10; administered p.o. (a)): 53^a %
23 | CCC(COC)n1cc(-c2c(C)nc3c(N4CCOCC4)nccn23)cn1 (single isomer, unassigned) [compound 74] | – | 95.5 nM | – | > 2.5 mg/kg | –
24 | Cc1nc2c(N3CCOCC3)nccn2c1-c1cnn(CCN2CCOCC2)c1 [compound 116] | – | 275 nM | – | > 2.5 mg/kg | –
25 | FC(F)(F)Cn1cc(-c2c(C3CC3)nc3c(N4CCOCC4)nccn23)cn1 [compound 46] | 41% | 25.1 nM | – | – | ED50 [1, 4]: 5 mg/kg
26 | Cc1nc2c(N3CCOCC3)nccn2c1-c1cnn(C2CCOC2)c1 (stereo not drawn) [compound 82] | – | 115 nM | 3.1 mg/kg | – | –
27 | COCCn1cc(-c2c(C(F)(F)F)nc3c(N4CCOCC4)nccn23)cn1 [compound 118] | 0% | – | – | > 2.5 mg/kg | PDE10A2 pIC50 [2]: 6.51
28 | Cc1nc2c(-c3ccncc3)nccn2c1-c1cnn(CC(F)(F)F)c1 [compound 67] | 55% | 85.1 nM | – | – | ED50 [1, 4]: 3.1 mg/kg
29 | COC[C@@H](C)n1cc(-c2c(C)nc3c(-c4ccncc4)nccn23)cn1 [compound 104] | – | 170 nM | 5 mg/kg | – | –
30 | COCCn1cc(-c2cnc3c(N4CCOCC4)nccn23)cn1 [compound 141] | – | 955 nM | 5 mg/kg | – | –
31 | Cc1nc2c(N3CCOCC3)nccn2c1-c1cnn(CC2CCOCC2)c1 [compound 89] | – | 135 nM | ≤ 10 mg/kg | – | –
32 | COc1nc2c(N3CCOCC3)nccn2c1-c1ccc(CC(C)(C)OC)nc1 [compound 95] | – | 141 nM | – | > 2.5 mg/kg | –
33 | Cc1nc2c(N3CCOCC3)nccn2c1-c1ccc(OCC(F)(F)F)nc1 [compound 122] | – | 380 nM | – | > 2.5 mg/kg | –
34 | COC(C)CCn1cc(-c2c(C)nc3c(N4CCOCC4)nccn23)cn1 (single isomer, unassigned) [compound 84] | – | 117 nM | – | > 2.5 mg/kg | –
